The values that follow come from PubChem BioAssay AID1996.

Converted amounts (≈) assume the structure as drawn.

A word on the kinetic solubility: it is solubility judged after dilution from a stock solution rather than from solid.

The conditions of the series: buffer; pH 7.4; 200.0 µM.
As for `CCOc1ncnc2c1sc1nc(C)cc(C)c12`, the solubility (kinetic) is < 0.2 µg/mL.
For the molecule `O=C(NCc1ccccn1)Nc1ccc(F)cc1F`, the kinetic solubility is > 39.5 µg/mL.
`O=C(N/C=C/n1cnc2cc(C(F)(F)F)ccc21)c1ccccc1F` came in with a kinetic solubility of 4.9 µg/mL (≈ 14 µM).
As for `COC(=O)c1ccccc1NC(=O)Nc1ccc(C)cn1`, the kinetic solubility was > 42.8 µg/mL.
As to `Cc1ccc(S(=O)(=O)N2CCN(C(=O)c3ccco3)CC2)cc1C`, the kinetic solubility was determined as 46 µg/mL (≈ 132 µM).
Consider `Cc1ccsc1C(=O)OCC(=O)NCc1ccco1`, for which the solubility (kinetic) was found to be 41.1 µg/mL (≈ 147 µM).
In turn, `COC(=O)CCC(=O)c1ccn(S(=O)(=O)c2ccccc2)c1` displayed a solubility (kinetic) of 44.6 µg/mL (≈ 139 µM).
The value for `C/C(=N\OCc1ccc(C#N)cc1)c1ccccc1` was < 0.3 µg/mL.
In the case of `Cc1cc(C)c(C(N)=O)c(Nc2ccc(F)cc2)n1`, the solubility (kinetic) was > 38.9 µg/mL.
As for `O=C(CN1C(=O)c2cccc([N+](=O)[O-])c2C1=O)NCc1ccccc1`, the kinetic solubility is > 50.9 µg/mL.
The result for `Cc1ccc(NC(=O)C/C(N)=N/OC(=O)c2ccccc2)cc1` reads 2.2 µg/mL (≈ 7.07 µM).
The value for `COc1ccccc1C(=O)N(C1=NC(C)CS1)c1ccc(Cl)cc1` (stereo unspecified) was 8.1 µg/mL (≈ 22.4 µM); that for `OCCNCC12CC3CC(CC(C3)C1)C2` was 26.4 µg/mL (≈ 126 µM).
The result for `COc1ccc(S(=O)(=O)Nc2noc3ccccc23)cc1OC` reads > 50.2 µg/mL.
As to `O=C(NC(=S)Nc1ccc([N+](=O)[O-])cc1O)C1CCCCC1`, the kinetic solubility turned out to be 3.5 µg/mL (≈ 10.8 µM).
Turning to `O=[N+]([O-])c1ccc2nc(NS(=O)(=O)c3ccccc3[N+](=O)[O-])sc2c1`, the solubility (kinetic) amounted to 55.7 µg/mL (≈ 146 µM).
In turn, `Brc1ccc(OCc2nc3ccccc3[nH]2)cc1` showed a solubility (kinetic) of 2.4 µg/mL (≈ 7.92 µM).
For `O=c1[nH]c(/C=C/c2ccccc2)c([N+](=O)[O-])c(=O)[nH]1`, the solubility (kinetic) is > 38.9 µg/mL.
Take `COc1ccc(Nc2nccc3c2ncn3C)cc1`: the kinetic solubility was > 38.1 µg/mL.
Molecule `S=C(NCc1ccccc1)Nc1cccc2ccccc12` returned a kinetic solubility of 3.8 µg/mL (≈ 13 µM).
As to `CC(C)Oc1ccc(Cn2c(=O)oc3ccccc32)cc1`, the solubility (kinetic) is 0.7 µg/mL (≈ 2.47 µM).
As for `CCOC(=O)c1cc(C#N)c(N2CCCNCC2)nc1C(F)(F)F`, the kinetic solubility was > 51.3 µg/mL.
On to `CC(C(=O)Nc1ccc2c(c1)OCO2)N(C)CC(=O)Nc1ccccc1Cl` (stereo unspecified), for which the solubility (kinetic) is > 58.5 µg/mL.
The result for `Nc1ccc(-c2nc3ccc(N)cc3s2)cc1` reads 17.7 µg/mL (≈ 73.3 µM).
The value for `O=c1[nH]c(/C=C\c2cccc(Cl)c2)nc(O)c1[N+](=O)[O-]` was > 44.1 µg/mL; that for `Cn1c(/C(C#N)=C(\O)c2cc(Cl)sc2Cl)nc2ccccc21` was 0.9 µg/mL (≈ 2.57 µM).
`CCc1nc2oc3ccccc3c(=O)c2cc1C(=O)OC` yielded a solubility (kinetic) of 4.2 µg/mL (≈ 14.8 µM).
`CN(C)c1cccc(C(=O)OCC(=O)NC2CCCC2)c1` showed a kinetic solubility of 36.6 µg/mL (≈ 126 µM).
The result for `CC(C)C(=O)NC(CC(=O)O)c1ccccc1` (stereo unspecified) reads > 35.3 µg/mL.
Take `Cc1ccc(C(C)c2c(C)c([N+](=O)[O-])cc(C)c2[N+](=O)[O-])cn1` (stereo unspecified): the kinetic solubility is 13.4 µg/mL (≈ 42.5 µM).
With `COc1ccc(/C=N/OCC(=O)NCC(C)C)c(OC)c1`, the kinetic solubility is > 44.2 µg/mL.
For `CCCN1CCN(CCNC(=O)Nc2ccccc2Cl)CC1`, the solubility (kinetic) is > 48.7 µg/mL.
Regarding `O=C(CNC(=O)c1ccco1)OCC(=O)c1ccc([N+](=O)[O-])cc1`, the solubility (kinetic) was > 49.8 µg/mL.
The result for `COC(=O)CSc1nc(C)cc(N2CCOCC2)n1` reads > 42.5 µg/mL.
The value for `CCc1noc(C)c1C(=O)N(CCOC)c1c(N)n(CC(C)C)c(=O)[nH]c1=O` was 55.6 µg/mL (≈ 141 µM); that for `CS(=O)(=O)c1ccccc1C(=O)Nc1cccc2ncccc12` was 35.9 µg/mL (≈ 110 µM); that for `O=C(Cc1ccccc1)Nc1ncccc1Cl` was > 37 µg/mL.
For the molecule `O=C(CNC(=O)c1ccccc1Cl)Nc1ccncc1`, the solubility (kinetic) was > 43.5 µg/mL.
The value for `COc1cccc(/C=C/c2nc(C#N)c(NCC(C)C)o2)c1` was 0.4 µg/mL (≈ 1.35 µM); that for `Cc1ccc(CSc2ncnc3onc(C)c23)cc1` was < 0.2 µg/mL.
With `O=C1CC(c2ccccc2)Cc2nc(NC3CC3)ncc21` (stereo unspecified), the kinetic solubility worked out at 2.7 µg/mL (≈ 9.67 µM).
The molecule `COc1ccc(-c2noc(CN(Cc3nccn3C)C(C)C)n2)cc1` yielded a kinetic solubility of 45.6 µg/mL (≈ 134 µM).
`COC(=O)c1ccc(NC(=O)c2ccc3nsnc3c2)cc1` came in with a solubility (kinetic) of 1.3 µg/mL (≈ 4.15 µM).
For `Cc1cc(C)c(C)c(S(=O)(=O)NCc2ccc(C(=O)N3CCN(C)CC3)cc2)c1C`, the kinetic solubility was > 64.4 µg/mL.
The result for `O=C(Nc1ccccc1F)c1ccc2ncsc2c1` reads > 40.8 µg/mL; that for `Cc1ccc(C)c(NC(=O)CN(C)C(C)C(=O)N2CC(C)CC(C)C2)c1` (stereo unspecified), 47.9 µg/mL (≈ 133 µM); that for `Cc1ccc(C2(c3ccc(C)cc3)NC(=O)N(CC(=O)NCCCN3CCCC3=O)C2=O)cc1`, > 69.4 µg/mL.
In turn, `Cc1noc(C)c1C(=O)N1CCC(CO)(Cc2ccccc2)CC1` registered a kinetic solubility of 42 µg/mL (≈ 128 µM).
Consider `Cc1cc(C(=O)NCCc2ccc(Cl)cc2)no1`, for which the solubility (kinetic) amounted to 18.6 µg/mL (≈ 70.3 µM).
The value for `Cc1cccc(C2N=C(N)Nc3nc4ccccc4n32)c1` (stereo unspecified) was 34.3 µg/mL (≈ 124 µM); that for `COc1ccc(C)cc1Nc1nc(N)c2cc(OC)c(OC)cc2n1` was 40.1 µg/mL (≈ 118 µM).
Regarding `O=C(O)CCC(=O)NNC(=O)c1ccc([N+](=O)[O-])cc1`, the solubility (kinetic) is > 42.2 µg/mL.
In turn, `O=C(/C=C/c1ccc([N+](=O)[O-])cc1)NCc1ccc2c(c1)OCO2` yielded a kinetic solubility of 0.9 µg/mL (≈ 2.76 µM).
`N#Cc1ccccc1NC(=O)COC(=O)c1c[nH]c2ccccc12` returned a kinetic solubility of 4.4 µg/mL (≈ 13.8 µM).
For the molecule `Cc1ccccc1C(=O)NC1CCN(C(=O)Nc2ccc(F)cc2)CC1`, the solubility (kinetic) was 21.5 µg/mL (≈ 60.5 µM). This solubility kinetic lies about 4.9-fold higher than the previous one.
As to `Cc1ccccc1NC(=O)c1ccc(OCc2c(C)noc2C)cc1`, the kinetic solubility was 42.3 µg/mL (≈ 126 µM). Compared with the last molecule, the solubility kinetic is about 2-fold higher.
For the molecule `CC1CCCCN1CCn1c(=S)[nH]c2cc3c(cc2c1=O)OCO3` (stereo unspecified), the solubility (kinetic) is > 52.1 µg/mL.
Take `COc1ccc(N2C(=O)C(F)(F)C2c2ccc(C)cc2)cc1OC` (stereo unspecified): the solubility (kinetic) is < 0.7 µg/mL.
As for `CCOC(=O)c1csc(NC(=O)CN2CCCCC2)n1`, the kinetic solubility was > 44.6 µg/mL.
`O=C(CN1C(=O)NC2(CCCCC2)C1=O)Nc1ccc(Cl)cc1` showed a kinetic solubility of 11.3 µg/mL (≈ 33.7 µM).
The value for `O=C(COC(=O)C12CC3CC(CC(Br)(C3)C1)C2)Nc1c(F)cccc1F` was 16.1 µg/mL (≈ 37.6 µM).
The value for `CC1Cc2ccccc2N1C(=O)COC(=O)c1ccc([N+](=O)[O-])o1` (stereo unspecified) was > 49.5 µg/mL; that for `C/C(=C\c1ccccc1)C(=O)N1CCN(Cc2ccc3c(c2)OCO3)CC1` was 51.8 µg/mL (≈ 142 µM); that for `Cc1ccc(N=C2C(=O)Nc3ccccc32)cc1C` was 24 µg/mL (≈ 95.9 µM).
For the molecule `C=CC#CC1(O)CC(C)N(C)CC1C` (stereo unspecified), the kinetic solubility is > 29 µg/mL.
For the molecule `COc1ccc2cc(C(=O)N3CCN(c4ccccc4OC)CC3)[nH]c2c1`, the kinetic solubility was 2.9 µg/mL (≈ 7.94 µM).
In the case of `COc1ccc(CC(=O)OCC(=O)NC2CCCCC2)cc1`, the kinetic solubility was > 45.8 µg/mL.
Consider `COc1cc(CNC(C)C23CC4CC(CC(C4)C2)C3)cc(OC)c1OC.Cl` (stereo unspecified), for which the solubility (kinetic) was > 59.4 µg/mL.
The value for `CCOc1ccc(C(=O)NCC(=O)N2CCCCCCC2)cc1` was > 47.8 µg/mL; that for `Cc1ccc2nc(NCC(N)=O)nc(-c3ccccc3)c2c1` was 1.4 µg/mL (≈ 4.79 µM); that for `CN1CCN(S(=O)(=O)c2ccc(NC(=O)c3ccc([N+](=O)[O-])cc3)cc2)CC1` was 4.9 µg/mL (≈ 12.1 µM).
The value for `CN(c1ccccc1)S(=O)(=O)c1cccc(NC(=O)C2CCCO2)c1` (stereo unspecified) was > 54.1 µg/mL; that for `CC(C)C1Nc2ccc(C(=O)O)cc2C2C=CCC21` (stereo unspecified) was > 38.6 µg/mL; that for `O=C(Nc1sc2c(c1C(=O)O)CCCC2)c1cccc(Cl)c1` was 45.5 µg/mL (≈ 135 µM).
In turn, `Cc1cccc(N=C2NC(=O)/C(=C/c3cccnc3)S2)c1C` yielded a kinetic solubility of 5.1 µg/mL (≈ 16.5 µM).
The result for `Cc1c(NC(=O)c2ccc(-c3ccccc3)cc2)cccc1C(=O)O` reads 42.3 µg/mL (≈ 128 µM); that for `CN(C)S(=O)(=O)c1cccc(NC(=S)NCc2ccco2)c1`, > 50.9 µg/mL; that for `CC1CCCCN1S(=O)(=O)c1csc(C(N)=O)c1` (stereo unspecified), > 43.3 µg/mL.
The molecule `O=C(CN(c1ccccc1Cl)S(=O)(=O)c1ccccc1)NCc1ccccc1` gave a kinetic solubility of 18.7 µg/mL (≈ 45.1 µM).
The result for `COc1cc2c(cc1OC)CN(C(=O)c1ccc([N+](=O)[O-])o1)CC2` reads > 49.8 µg/mL; that for `COc1ccc(CNC(=O)c2nccnc2CO)cc1`, > 41 µg/mL; that for `CCOC(=O)c1ncccc1NC(=O)CC(=O)Nc1cccnc1C(=O)OCC`, 58.2 µg/mL (≈ 145 µM).
The molecule `COc1ccc(Br)cc1CN1CCCCCC1` came in with a solubility (kinetic) of 37.4 µg/mL (≈ 125 µM).
Take `Cc1cccnc1NC(=O)CCNC(=O)c1ccc(Br)cc1`: the solubility (kinetic) was > 54.3 µg/mL.
In the case of `CC(C)(C)c1ccc(C(=O)N2CCN(C(=O)c3cccs3)CC2)cc1`, the kinetic solubility is > 53.5 µg/mL.
The molecule `COc1ccc(C(C)(C)C)cc1NC(=O)C1CCCO1` (stereo unspecified) came in with a kinetic solubility of 41.5 µg/mL (≈ 150 µM).
Turning to `Cc1cc(NC(=O)CN(C)C)c([N+](=O)[O-])cc1C`, the solubility (kinetic) stood at 4.1 µg/mL (≈ 16.3 µM).
In turn, `O=C(/C=C/c1ccc(OCc2cccc(Cl)c2)cc1)N1CCOCC1` yielded a solubility (kinetic) of 5.2 µg/mL (≈ 14.5 µM). The solubility kinetic values of the last two molecules are within 1.5-fold of each other.
The result for `Cc1ccc(NC(=O)CN(C)C(=O)C2CCC2)cc1` reads > 39.1 µg/mL; that for `CSc1ccccc1NC(=S)NCc1ccc(Cl)cc1`, 2.5 µg/mL (≈ 7.74 µM); that for `COc1ccc(/C=C2/SC(=S)NC2=O)cc1OCc1ccccc1`, < 0.8 µg/mL.
The result for `CN(C)c1ccc(CNc2ccccn2)cc1` reads 22.3 µg/mL (≈ 98.1 µM).
The result for `O=C(Nc1ccc(CN2CCOCC2)cc1)c1cc(Cl)ccc1Cl` reads 50.1 µg/mL (≈ 137 µM); that for `O=C(Cn1cnc2cc([N+](=O)[O-])ccc2c1=O)N1CCN(S(=O)(=O)c2ccccc2)CC1`, 11 µg/mL (≈ 24 µM).
For the molecule `O=C(O)C1C2C=CC(C2)C1C(=O)NCc1cccc(Cl)c1` (stereo unspecified), the solubility (kinetic) came to 43.3 µg/mL (≈ 142 µM).
Molecule `CCNc1ccc(S(=O)(=O)NCCN(C)C)cc1[N+](=O)[O-]` came in with a kinetic solubility of 42.4 µg/mL (≈ 134 µM).
In the case of `Cc1nc2ccccc2c(=O)n1-c1ccc(F)cc1F`, the solubility (kinetic) worked out at 36.9 µg/mL (≈ 136 µM).
Molecule `CCC(OC(=O)c1nsc(Cl)c1Cl)C(=O)NCC1CCCO1` (stereo unspecified) had a kinetic solubility of 52.8 µg/mL (≈ 144 µM).
As for `CCCn1c(C(C)NS(=O)(=O)c2ccccc2)n[nH]c1=S` (stereo unspecified), the solubility (kinetic) is > 49 µg/mL.
Turning to `Cc1cccc(C)c1NC(=O)CN(C)CC(=O)N1CC(=O)Nc2ccccc21`, the solubility (kinetic) is > 57.1 µg/mL.
For `C=CCn1cnnc1SCC(=O)N(C1CCCCC1)C1CCS(=O)(=O)C1` (stereo unspecified), the kinetic solubility is > 59.8 µg/mL.
